Results reported in patent US20080146499A1, “Identification of the Precise Amino Acid Sequence of the Epitope Recognized by the Potent Neutralizing Human Anti-Hiv-1 Monoclonal Antibody Igg1b12” (priority 2005, published 2008).
No end group written: not given here. *: point of attachment. Biotin = O=C1N[C@H]2[C@H](CS[C@H]2CCCCC(=O)*)N1

Experiments:
[1] = system: N terminal peptide; conditions: i.p. immunizations days 1, 15, 30, 45, 60; sera day 67; compared to control mice; FIG. 13 B
Description: (§1) For immunogenicity studies, 4 groups of 4 BALB/c mice (16 total) were immunized intraperitoneally (i.p.) 5 times over 2 months. The first group of mice received PBS plus Freund's adjuvant in each immunization, and the second group received 10-50 kg gp120. The third and fourth groups received 10 μg biotinylated peptide (group 3 received N-term, group 4, scrambled) linked to avidin.
(§2) ELISAs to detect Ab responses in mice were carried out by coating 96 well plates with 2.5 μg/ml gp120 or 5 μg/ml biotinylated peptide overnight at 4° C. Blood was obtained by venous tail puncture, serum was obtained by collecting the supernatant of blood that had been incubated at 4° C. for one hour and centrifuged in an Eppendorf microcentrifuge (Centrifuge 5417C, Brinkmann Instruments, Ltd. Mississauga, ON) twice for 30 minutes at maximum speed. Serum was diluted at 1/50 down in doubling dilutions and incubated on plates for 2 hours at 37° C., washed, and HRP-goat anti-mouse secondary antibody (Southern Biotechnology Associates, Inc., Birmingham, Ala.) was added. ABTS substrate (Roche Diagnostics Canada, Laval, PQ) was used for detection. Plates were read at 405 nm on the Spectramax Plus.

[2] = system: gp120
Description: as §1, §2

[3] = system: IgG1 b12
Description: Antigen capture ELISA was carried out by first coating 96 well plates (NUNC, Mississauga, ON) with 2.5 μg/ml IgG1 b12 at 4° C. overnight. Plates were washed with phosphate buffered saline (PBS) 0.05% Tween 20 and blocked with PBS containing 0.17% bovine serum albumin. Plates were washed and incubated at 4° C. overnight with serially diluted biotinylated peptides (Nterm and scrambled peptides) corresponding to the amino terminal region of gp120 N-term (biotin-[sequence]), and a scrambled peptide control (biotin-[sequence]) (United Biochemical Research, Inc., Seattle, Wash.). Plates were washed and incubated at 37° C. for 45 minutes with streptavidin alkaline phosphatase (Jackson ImmunoResearch Laboratories, Inc. West Grove, Pa.) then washed again and incubated with MgCl2 diethanolamine substrate buffer plus alkaline phosphatase yellow (pNPP) (Sigma, Oakville, ON.) at room temperature. Plates were read on a Spectramax Plus (Molecular Devices, Sunnyvale, Calif.) at 405 nm.

[4] = biological target: biotinylated N-term peptide (biotin-…) (HIV-1); experiment: antigen capture ELISA, plates coated with IgG1 b12, biotinylated peptide detected with streptavidin alkaline phosphatase; reference: scrambled peptide
[5] = system: IgG1b12 antibody; experiment: Synthetic gp120 peptide binding to bead-linked IgG1b12, measured by mass spectrometry; parameters: species or system human; conditions: synthetic peptides as starting material; FIG. 5
Description: The antibody was linked to cyanogen-bromide activated sepharose beads (Sigma-Aldrich, Oakville, Ontario). Epitope excision was performed to include potential conformational epitopes. The antibody-bead mixture was incubated with either MN or IIIB HIV-1 gp120 (ImmunoDiagnostics, Inc. Woburn, Mass.) or synthetic HIV-1 gp120 peptides (United Biochemical Research, Inc, Seattle, Wash., USA) for 2 hours under physiological conditions. After several washes, trypsin (Calbiochem-Novabiochem Corporation, San Diego, Calif., USA), or Glu-C (Roche Diagnostics Canada. Laval, Quebec) enzyme digests were performed. Unbound, digested material was washed away. Antibody-bound fragments protected from digestion were analyzed by mass spectrometry. Bead+antibody+peptide complex were spotted on a gold plate along with DHB matrix (Sigma-Aldrich, Oakville, Ontario) (3,4). The sample was analyzed on the prototypic QqTOF mass spectrometer by matrix-assisted laser desorption/ionization.
Epitope mapping experiments were performed using synthetic peptides. One peptide, the “N-term” (amino terminus) peptide was tested for it's binding to IgG1b12. The N-term sequence is as follows: [sequence]. A second peptide covered the CD4 binding site, including the isoleucine (I) residue.

Question: “Biotin-LWVTVYYGVPVWKEATTTLFCASDAK [Nterm peptide]” was tested. Which “serum antibodies binding N-terminal peptide” value [1] did it give?
Answer: contains antibodies capable of binding both whole gp120 and N-terminal peptide

Question: What about the “immunogenicity in the mouse model” value ([2]; BALB/c mice, biotinylated peptide linked to avidin, i.p.) of the same substance?
Answer: immunogenic

Question: And the “serum antibodies binding whole gp120” value ([2]; i.p. immunizations days 1, 15, 30, 45, 60, sera day 67, compared to control mice, FIG. 13 A)?
Answer: contains antibodies capable of binding both whole gp120 and N-terminal peptide

Question: What about the “binding to IgG1 b12 relative to the scrambled peptide” value ([3]; antigen capture ELISA) of the same substance?
Answer: 4 times

Question: And the “peptide binding to IgG1 b12” value ([3]; plates coated with 2.5 μg/ml IgG1 b12, serially diluted biotinylated peptide, FIG. 11)?
Answer: bound IgG1 b12, and this binding was dose dependant

Question: For IgG1b12 human monoclonal antibody, which fold binding against the scrambled peptide [4] is on record?
Answer: 4 times

Question: Which “recognition of synthetic peptide by IgG1b12” value [5] does the source give for “KLWVTVYYGVPVWKEATTTLFCASDAKAYDTE [amino terminus]” here?
Answer: specifically recognizes
